From patent US9932331B2, “Phenyl tetrahydroisoquinoline compound substituted with heteroaryl” (TAISHO PHARMACEUTICAL CO., LTD, priority 2014, dated 2018)
Structures can show the parent of a compound that is named as a salt.

Molecular target: T1, human NHE3 (Homo sapiens, UniProt P48764)
T1 sequence (P48764 26-834): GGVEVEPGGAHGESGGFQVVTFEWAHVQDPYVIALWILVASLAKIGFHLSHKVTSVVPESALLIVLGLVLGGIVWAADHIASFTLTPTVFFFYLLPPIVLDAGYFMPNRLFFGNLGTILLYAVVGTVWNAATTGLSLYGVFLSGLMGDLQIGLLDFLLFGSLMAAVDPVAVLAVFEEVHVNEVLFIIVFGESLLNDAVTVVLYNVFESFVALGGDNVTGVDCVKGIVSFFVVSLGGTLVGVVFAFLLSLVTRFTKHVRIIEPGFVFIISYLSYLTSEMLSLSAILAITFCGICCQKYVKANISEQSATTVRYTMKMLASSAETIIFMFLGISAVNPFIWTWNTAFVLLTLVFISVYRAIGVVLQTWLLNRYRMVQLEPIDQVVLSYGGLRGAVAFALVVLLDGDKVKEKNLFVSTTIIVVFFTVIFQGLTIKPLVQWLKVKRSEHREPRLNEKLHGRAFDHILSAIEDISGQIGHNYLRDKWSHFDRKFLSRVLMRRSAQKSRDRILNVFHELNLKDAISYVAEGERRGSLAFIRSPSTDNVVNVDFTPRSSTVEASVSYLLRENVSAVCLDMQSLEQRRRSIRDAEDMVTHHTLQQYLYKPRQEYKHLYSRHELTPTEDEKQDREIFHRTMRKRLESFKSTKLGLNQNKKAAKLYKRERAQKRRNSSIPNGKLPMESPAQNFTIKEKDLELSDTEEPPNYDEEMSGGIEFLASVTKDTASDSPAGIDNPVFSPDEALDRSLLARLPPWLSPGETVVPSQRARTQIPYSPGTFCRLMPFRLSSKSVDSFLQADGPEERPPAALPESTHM
Test: NHE3 inhibition test (recovery of intracellular pH in cell line stably expressing human NHE3)
Format: cell-based
Details: OK cells deficient in endogenous NHE stably expressing human NHE3; BCECF fluorescence, initial rate of pH recovery; read-out: human NHE3 inhibitory activity IC50
Outline: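 IC50 is the concentration halving the initial rate of Na-triggered intracellular pH recovery, tracked by BCECF fluorescence, in NH4Cl-acidified cells. Cells: NHE-deficient OK line stably transfected with human NHE3; compound added in Na-free pH 7.4 buffer.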

| SMILES | IC50 [nM] |
| --- | --- |
| CN1Cc2c(Cl)cc(Cl)cc2[C@H](c2cccc(-c3cn(CCOCCOCCOCCNC(=O)[C@@H](O)[C@H](O)C(=O)NCCOCCOCCOCCn4cc(-c5cccc([C@@H]6CN(C)Cc7c(Cl)cc(Cl)cc76)c5)nn4)nn3)c2)C1 [Example 8-9, (2S,3S)-N,N′-Bis[2-(2-{2-[2-(4-{3-[(4S)-6,8-dichloro-2-methyl-1,2,3,4-tetrahydroisoquinolin-4-yl]phenyl}-1H-1,2,3-triazol-1-yl)ethoxy]ethoxy}ethoxy)ethyl]-2,3-dihydroxybutanediamide hydrochloride] | 3.6 |
| CN1Cc2c(Cl)cc(Cl)cc2[C@@H](c2cccc(-c3cc(NCCOCCOCCOCCNC(=O)COCC(=O)NCCOCCOCCOCCNc4cc(-c5cccc([C@@H]6CN(C)Cc7c(Cl)cc(Cl)cc76)c5)ncn4)ncn3)c2)C1 [Example 8-11, 1-[(6-{3-[(4R)-6,8-Dichloro-2-methyl-1,2,3,4-tetrahydroisoquinolin-4-yl]phenyl}pyrimidin-4-yl)amino]-N-{2-[2-(2-{2-[(6-{3-[(4S)-6,8-dichloro-2-methyl-1,2,3,4-tetrahydroisoquinolin-4-yl]phenyl}pyrimidin-4-yl)amino]ethoxy}ethoxy)ethoxy]ethyl}-13-oxo-3,6,9,15-tetraoxa-12-azaheptadecan-17-amide hydrochloride] | 7.5 |
| CN1Cc2c(Cl)cc(Cl)cc2[C@H](c2cccc(-c3cc(NCCOCCOCCOCCNC(=O)CCCCC(=O)NCCOCCOCCOCCNc4cc(-c5cccc([C@@H]6CN(C)Cc7c(Cl)cc(Cl)cc76)c5)ncn4)ncn3)c2)C1 [Example 8-13, N,N′-Bis{2-[2-(2-{2-[(6-{3-[(4S)-6,8-dichloro-2-methyl-1,2,3,4-tetrahydroisoquinolin-4-yl]phenyl}pyrimidin-4-yl)amino]ethoxy}ethoxy)ethoxy]ethyl}hexanediamide hydrochloride] | 10.6 |
| CN1Cc2c(Cl)cc(Cl)cc2[C@H](c2cccc(-c3nnc(CCOCCOCCOCCNC(=O)[C@H](O)[C@@H](O)C(=O)NCCOCCOCCOCCc4nnc(-c5cccc([C@@H]6CN(C)Cc7c(Cl)cc(Cl)cc76)c5)[nH]4)[nH]3)c2)C1 [Example 8-15, (2R,3R)-N,N′-Bis[2-(2-{2-[2-(5-{3-[(4S)-6,8-dichloro-2-methyl-1,2,3,4-tetrahydroisoquinolin-4-yl]phenyl}-4H-1,2,4-triazol-3-yl)ethoxy]ethoxy}ethoxy)ethyl]-2,3-dihydroxybutanediamide diformate] | 1.9 |
| CN1Cc2c(Cl)cc(Cl)cc2[C@H](c2cccc(-c3cnnc(NCCOCCOCCOCCNC(=O)[C@H](O)[C@@H](O)C(=O)NCCOCCOCCOCCNc4cc(-c5cccc([C@@H]6CN(C)Cc7c(Cl)cc(Cl)cc76)c5)cnn4)c3)c2)C1 [Example 8-19, (2R,3R)-N,N′-Bis{2-[2-(2-{2-[(5-{3-[(4S)-6,8-dichloro-2-methyl-1,2,3,4-tetrahydroisoquinolin-4-yl]phenyl}pyridazin-3-yl)amino]ethoxy}ethoxy)ethoxy]ethyl}-2,3-dihydroxybutanediamide tetrahydrochloride] | 6.8 |
| CN1Cc2c(Cl)cc(Cl)cc2[C@H](c2cccc(-c3cc(OCCOCCOCCOCCNC(=O)CCC(=O)NCCOCCOCCOCCOc4cc(-c5cccc([C@@H]6CN(C)Cc7c(Cl)cc(Cl)cc76)c5)ncn4)ncn3)c2)C1 [Example 8-22, N,N′-Bis{2-[2-(2-{2-[(6-{3-[(4S)-6,8-dichloro-2-methyl-1,2,3,4-tetrahydroisoquinolin-4-yl]phenyl}pyrimidin-4-yl)oxy]ethoxy}ethoxy)ethoxy]ethyl}butanediamide hydrochloride] | 10.5 |
| CN1Cc2c(Cl)cc(Cl)cc2[C@H](c2cccc(-c3nnc(CCOCCOCCOCCNC(=O)[C@@H](O)[C@H](O)[C@H](O)[C@@H](O)C(=O)NCCOCCOCCOCCc4nnc(-c5cccc([C@@H]6CN(C)Cc7c(Cl)cc(Cl)cc76)c5)[nH]4)[nH]3)c2)C1 [Example 8-24, (2R,3S,4R,5S)-N,N′-Bis[2-(2-{2-[2-(5-{3-[(4S)-6,8-dichloro-2-methyl-1,2,3,4-tetrahydroisoquinolin-4-yl]phenyl}-4H-1,2,4-triazol-3-yl)ethoxy]ethoxy}ethoxy)ethyl]-2,3,4,5-tetrahydroxyhexanediamide hydrochloride] | 3.4 |
| CN1Cc2c(Cl)cc(Cl)cc2[C@H](c2cccc(-c3nnn(CCOCCOCCOCCNC(=O)[C@@H](O)[C@H](O)[C@H](O)[C@@H](O)C(=O)NCCOCCOCCOCCn4nnc(-c5cccc([C@@H]6CN(C)Cc7c(Cl)cc(Cl)cc76)c5)n4)n3)c2)C1 [Example 8-25, (2R,3S,4R,5S)-N,N′-Bis[2-(2-{2-[2-(5-{3-[(4S)-6,8-dichloro-2-methyl-1,2,3,4-tetrahydroisoquinolin-4-yl]phenyl}-2H-tetrazol-2-yl)ethoxy]ethoxy}ethoxy)ethyl]-2,3,4,5-tetrahydroxyhexanediamide hydrochloride] | 0.2 |
| CN1Cc2c(Cl)cc(Cl)cc2[C@H](c2cccc(-c3cn(CCOCCOCCOCCNC(=O)CN(CCN(CC(=O)NCCOCCOCCOCCn4cc(-c5cccc([C@@H]6CN(C)Cc7c(Cl)cc(Cl)cc76)c5)nn4)CC(=O)NCCOCCOCCOCCn4cc(-c5cccc([C@@H]6CN(C)Cc7c(Cl)cc(Cl)cc76)c5)nn4)CC(=O)NCCOCCOCCOCCn4cc(-c5cccc([C@@H]6CN(C)Cc7c(Cl)cc(Cl)cc76)c5)nn4)nn3)c2)C1 [Example 9-1, hydrochloride] | 13.1 |

Now from value to molecule:

| IC50 [nM] | SMILES |
| --- | --- |
| 2.8 | CN1Cc2c(Cl)cc(Cl)cc2[C@H](c2cccc(-c3cn(CCOCCOCCOCCNC(=O)[C@H](O)[C@@H](O)C(=O)NCCOCCOCCOCCn4cc(-c5cccc([C@@H]6CN(C)Cc7c(Cl)cc(Cl)cc76)c5)nn4)nn3)c2)C1 [Example 8-5, (2R,3R)-N,N′-Bis[2-(2-{2-[2-(4-{3-[(4S)-6,8-dichloro-2-methyl-1,2,3,4-tetrahydroisoquinolin-4-yl]phenyl}-1H-1,2,3-triazol-1-yl)ethoxy]ethoxy}ethoxy)ethyl]-2,3-dihydroxybutanediamide hydrochloride] |
| 41.7 | CN1Cc2c(Cl)cc(Cl)cc2[C@H](c2cccc(-c3ccc(NCCOCCOCCNC(=O)COCC(=O)NCCOCCOCCNc4ccc(-c5cccc([C@@H]6CN(C)Cc7c(Cl)cc(Cl)cc76)c5)cn4)nc3)c2)C1 [Example 8-7, 1-[(5-{3-[(4S)-6,8-Dichloro-2-methyl-1,2,3,4-tetrahydroisoquinolin-4-yl]phenyl}pyridin-2-yl)amino]-N-[2-(2-{2-[(5-{3-[(4S)-6,8-dichloro-2-methyl-1,2,3,4-tetrahydroisoquinolin-4-yl]phenyl}pyridin-2-yl)amino]ethoxy}ethoxy)ethyl]-10-oxo-3,6,12-trioxa-9-azatetradecan-14-amide hydrochloride] |
| 3.2 | CN1Cc2c(Cl)cc(Cl)cc2[C@H](c2cccc(-c3cc(NCCOCCOCCOCCNC(=O)[C@H](O)[C@@H](O)C(=O)NCCOCCOCCOCCNc4cc(-c5cccc([C@@H]6CN(C)Cc7c(Cl)cc(Cl)cc76)c5)ncn4)ncn3)c2)C1 [Example 8-10, (2R,3R)-N,N′-Bis{2-[2-(2-{2-[(6-{3-[(4S)-6,8-dichloro-2-methyl-1,2,3,4-tetrahydroisoquinolin-4-yl]phenyl}pyrimidin-4-yl)amino]ethoxy}ethoxy)ethoxy]ethyl}-2,3-dihydroxybutanediamide hydrochloride] |
| 3.2 | CN1Cc2c(Cl)cc(Cl)cc2[C@H](c2cccc(-c3cnc(NCCOCCOCCOCCNC(=O)[C@H](O)[C@@H](O)C(=O)NCCOCCOCCOCCNc4ncc(-c5cccc([C@@H]6CN(C)Cc7c(Cl)cc(Cl)cc76)c5)cn4)nc3)c2)C1 [Example 8-21, (2R,3R)-N,N′-Bis{2-[2-(2-{2-[(5-{3-[(4S)-6,8-dichloro-2-methyl-1,2,3,4-tetrahydroisoquinolin-4-yl]phenyl}pyrimidin-2-yl)amino]ethoxy}ethoxy)ethoxy]ethyl}-2,3-dihydroxybutanediamide formate] |
| 4.7 | CN1Cc2c(Cl)cc(Cl)cc2[C@H](c2cccc(-c3cc(OCCOCCOCCOCCNC(=O)CCCCC(=O)NCCOCCOCCOCCOc4cc(-c5cccc([C@@H]6CN(C)Cc7c(Cl)cc(Cl)cc76)c5)ncn4)ncn3)c2)C1 [Example 8-23, N,N′-Bis{2-[2-(2-{2-[(6-{3-[(4S)-6,8-dichloro-2-methyl-1,2,3,4-tetrahydroisoquinolin-4-yl]phenyl}pyrimidin-4-yl)oxy]ethoxy}ethoxy)ethoxy]ethyl}hexanediamide hydrochloride] |
| 2.2 | CN1Cc2c(Cl)cc(Cl)cc2[C@H](c2cccc(-c3cc(NCCOCCOCCOCCNC(=O)[C@@H](O)[C@H](O)[C@H](O)[C@@H](O)C(=O)NCCOCCOCCOCCNc4cc(-c5cccc([C@@H]6CN(C)Cc7c(Cl)cc(Cl)cc76)c5)ncn4)ncn3)c2)C1 [Example 8-26, (2R,3S,4R,5S)-N,N′-Bis{2-[2-(2-{2-[(6-{3-[(4S)-6,8-dichloro-2-methyl-1,2,3,4-tetrahydroisoquinolin-4-yl]phenyl}pyrimidin-4-yl)amino]ethoxy}ethoxy)ethoxy]ethyl}-2,3,4,5-tetrahydroxyhexanediamide hydrochloride] |
